# Measured values published in ChEMBL document CHEMBL1201862, “PubChem BioAssay data set” (2004).
#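 In this assay, cells in 96-well plates receive the compound at five concentrations for 48 hours. Endpoints are linearly interpolated between the surrounding concentrations. GI50 marks 50% less growth.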 Active and inactive are the calls of the source. Rule as the data show it: active = GI50 up to about 1.1 µM and inactive = higher.
# Tests used:
# Experiment in all cases: growth of human tumour cells (NCI), 48 h
# [1] = test system: Malme-3M
# [2] = test system: K562
# [3] = test system: U-251
# [4] = test system: SR
# [5] = test system: SNB-19
# [6] = test system: NCI-H226
# [7] = test system: DMS-114
# [8] = test system: KM-20L2
# [9] = test system: SK-MEL-28
# [10] = test system: M14
# [11] = test system: HCC 2998
# [12] = test system: MOLT-4
# [13] = test system: OVCAR-4
# [14] = test system: SK-OV-3
# [15] = test system: HCT-15
# [16] = test system: KM12
# [17] = test system: CAKI-1
# [18] = test system: SN12C
# [19] = test system: NCI-H23
# [20] = test system: SF-268
# [21] = test system: UO-31
# [22] = test system: OVCAR-3
# [23] = test system: TK-10
# [24] = test system: SW-620
# [25] = test system: RXF 393
# [26] = test system: OVCAR-5
# [27] = test system: A549
# [28] = test system: HOP-92
# [29] = test system: HCT-116
# [30] = test system: ACHN
# [31] = test system: LOX IMVI
# [32] = test system: UACC-62
# [33] = test system: IGROV-1
# [34] = test system: SK-MEL-5
# [35] = test system: SK-MEL-2
# [36] = test system: SNB-75
# [37] = test system: SNB-78
# [38] = test system: 786-0
# [39] = test system: HL-60
# [40] = test system: OVCAR-8
# [41] = test system: LXFL 529
# [42] = test system: UACC-257
# [43] = test system: CCRF-CEM
# [44] = test system: MCF7
# [45] = test system: COLO 205
# [46] = test system: EKVX
# [47] = test system: RPMI-8226
# [48] = test system: DMS-273
# [49] = test system: A498
# [50] = test system: Hs-578T
# [51] = test system: HOP-18
# [52] = test system: NCI/ADR-RES
# [53] = test system: PC-3
# [54] = test system: HT-29
# [55] = test system: BT-549
# [56] = test system: DLD-1
# [57] = test system: NCI-H522
# [58] = test system: MDA-MB-231
# [59] = test system: SF-539
# [60] = test system: SF-295
# [61] = test system: NCI-H460
# [62] = test system: M19-MEL
# [63] = test system: HOP-62
compound,measurement,setting,value
N#CN1CCC2CC(=O)CCC2C1 (stereo not drawn),GI50,[1],> 100 µM (inactive)
same,GI50,[2],> 100 µM (inactive)
same,GI50,[3],> 100 µM (inactive)
same,GI50,[4],> 100 µM (inactive)
same,GI50,[5],> 100 µM (inactive)
same,GI50,[6],> 100 µM (inactive)
same,GI50,[7],> 100 µM (inactive)
same,GI50,[8],> 100 µM (inactive)
same,GI50,[9],> 100 µM (inactive)
same,GI50,[10],> 100 µM (inactive)
same,GI50,[11],> 100 µM (inactive)
same,GI50,[12],> 100 µM (inactive)
same,GI50,[13],> 100 µM (inactive)
same,GI50,[14],> 100 µM (inactive)
same,GI50,[15],> 100 µM
same,GI50,[16],> 100 µM (inactive)
same,GI50,[17],> 100 µM (inactive)
same,GI50,[18],> 100 µM (inactive)
same,GI50,[19],> 100 µM (inactive)
same,GI50,[20],> 100 µM (inactive)
same,GI50,[21],> 100 µM (inactive)
same,GI50,[22],> 100 µM (inactive)
same,GI50,[23],> 100 µM (inactive)
same,GI50,[24],> 100 µM (inactive)
same,GI50,[25],> 100 µM (inactive)
same,GI50,[26],> 100 µM (inactive)
same,GI50,[27],> 100 µM (inactive)
same,GI50,[28],> 100 µM (inactive)
same,GI50,[29],> 100 µM (inactive)
same,GI50,[30],> 100 µM (inactive)
same,GI50,[31],> 100 µM (inactive)
same,GI50,[32],> 100 µM (inactive)
same,GI50,[33],> 100 µM (inactive)
same,GI50,[34],> 10 µM (inactive)
same,GI50,[35],> 100 µM (inactive)
same,GI50,[36],> 100 µM (inactive)
same,GI50,[37],> 100 µM (inactive)
same,GI50,[38],> 100 µM (inactive)
same,GI50,[39],> 100 µM (inactive)
CO[C@@]12[C@H](COC(N)=O)C3=C(C(=O)C(C)=C(N)C3=O)N1C[C@@H]1N[C@@H]12 [MITOMYCIN],GI50,[40],1.11 µM (active)
same,GI50,[1],0.796 µM (active)
same,GI50,[2],2.03 µM (inactive)
same,GI50,[4],0.122 µM (active)
same,GI50,[6],0.714 µM (active)
same,GI50,[41],2.55 µM (inactive)
same,GI50,[42],1.21 µM (inactive)
same,GI50,[8],1.3 µM (inactive)
same,GI50,[43],0.229 µM (active)
same,GI50,[9],1.75 µM (inactive)
same,GI50,[11],0.614 µM (active)
same,GI50,[12],0.23 µM (active)
same,GI50,[44],0.148 µM (active)
same,GI50,[45],1.02 µM (active)
same,GI50,[13],3.56 µM (inactive)
same,GI50,[14],1.02 µM (active)
same,GI50,[15],1.29 µM
same,GI50,[16],2.22 µM (inactive)
same,GI50,[21],1.87 µM (inactive)
same,GI50,[22],3.07 µM (inactive)
same,GI50,[46],4.62 µM (inactive)
same,GI50,[23],4.86 µM (inactive)
same,GI50,[24],0.485 µM (active)
same,GI50,[47],2.4 µM (inactive)
same,GI50,[48],0.104 µM (active)
same,GI50,[49],0.714 µM (active)
same,GI50,[25],2.01 µM (inactive)
same,GI50,[26],1.36 µM (inactive)
same,GI50,[50],3.22 µM (inactive)
same,GI50,[28],3.49 µM (inactive)
same,GI50,[51],1.1 µM (active)
same,GI50,[52],4.74 µM (inactive)
same,GI50,[29],0.701 µM (active)
same,GI50,[53],2.24 µM (inactive)
same,GI50,[54],0.759 µM (active)
same,GI50,[55],1.75 µM (inactive)
same,GI50,[33],2.9 µM (inactive)
same,GI50,[35],1.65 µM (inactive)
same,GI50,[56],2.8 µM (inactive)
same,GI50,[57],0.667 µM (active)
same,GI50,[58],5.71 µM (inactive)
same,GI50,[39],0.204 µM (active)
CN/N=C(/Cc1occc(=O)c1O)C(=O)Nc1ccccc1C,GI50,[40],> 100 µM (inactive)
same,GI50,[1],> 100 µM (inactive)
same,GI50,[2],> 100 µM (inactive)
same,GI50,[3],> 100 µM (inactive)
same,GI50,[4],> 100 µM (inactive)
same,GI50,[5],> 100 µM (inactive)
same,GI50,[6],> 100 µM (inactive)
same,GI50,[7],> 100 µM (inactive)
same,GI50,[59],> 100 µM (inactive)
same,GI50,[60],> 100 µM (inactive)
same,GI50,[41],> 100 µM (inactive)
same,GI50,[42],> 100 µM (inactive)
same,GI50,[8],> 100 µM (inactive)
same,GI50,[43],> 100 µM (inactive)
same,GI50,[9],> 100 µM (inactive)
same,GI50,[10],> 100 µM (inactive)
same,GI50,[11],> 100 µM (inactive)
same,GI50,[12],> 100 µM (inactive)
same,GI50,[61],> 100 µM (inactive)
same,GI50,[45],> 100 µM (inactive)
same,GI50,[13],> 100 µM (inactive)
same,GI50,[14],> 100 µM (inactive)
same,GI50,[15],> 100 µM
same,GI50,[16],> 100 µM (inactive)
same,GI50,[17],> 100 µM (inactive)
same,GI50,[18],> 100 µM (inactive)
same,GI50,[19],> 100 µM (inactive)
same,GI50,[20],> 100 µM (inactive)
same,GI50,[21],> 100 µM (inactive)
same,GI50,[22],> 100 µM (inactive)
same,GI50,[46],> 100 µM (inactive)
same,GI50,[23],> 100 µM (inactive)
same,GI50,[24],> 100 µM (inactive)
same,GI50,[47],> 100 µM (inactive)
same,GI50,[62],> 100 µM (inactive)
same,GI50,[49],> 100 µM (inactive)
same,GI50,[26],> 100 µM (inactive)
same,GI50,[63],> 100 µM (inactive)
same,GI50,[27],> 100 µM (inactive)
same,GI50,[28],20.4 µM (inactive)
same,GI50,[29],> 100 µM (inactive)
same,GI50,[30],> 100 µM (inactive)
same,GI50,[31],> 100 µM (inactive)
same,GI50,[32],> 100 µM (inactive)
same,GI50,[54],> 100 µM (inactive)
same,GI50,[33],> 100 µM (inactive)
same,GI50,[34],> 100 µM (inactive)
same,GI50,[35],> 100 µM (inactive)
same,GI50,[57],> 100 µM (inactive)
same,GI50,[37],> 100 µM (inactive)
same,GI50,[38],> 100 µM (inactive)
same,GI50,[39],> 100 µM (inactive)
